According to PubChem BioAssay (NCI):
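Assay format: 96-well plates, 48-hour exposure. TGI: total growth inhibition.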

Legend:
Assay in all cases: NCI tumour cell line growth inhibition, 48 h
A549 NSCLC = system: A549 NSCLC
BT-549 breast = system: BT-549 breast
CAKI-1 renal = system: CAKI-1 renal
COLO 205 colon = system: COLO 205 colon
EKVX NSCLC = system: EKVX NSCLC
HCT-116 colon = system: HCT-116 colon
HCT-15 colon = system: HCT-15 colon
HOP-62 NSCLC = system: HOP-62 NSCLC
HT29 colon = system: HT29 colon
IGROV1 ovarian = system: IGROV1 ovarian
K-562 leukemia = system: K-562 leukemia
KM12 colon = system: KM12 colon
M14 melanoma = system: M14 melanoma
MALME-3M melanoma = system: MALME-3M melanoma
MCF7 breast = system: MCF7 breast
MDA-MB-435 = system: MDA-MB-435
MDA-N = system: MDA-N
NCI-H226 lung = system: NCI-H226 lung
NCI-H23 lung = system: NCI-H23 lung
NCI-H522 lung = system: NCI-H522 lung
NCI/ADR-RES ovarian = system: NCI/ADR-RES ovarian
OVCAR-3 ovarian = system: OVCAR-3 ovarian
OVCAR-4 ovarian = system: OVCAR-4 ovarian
OVCAR-5 ovarian = system: OVCAR-5 ovarian
PC-3 prostate = system: PC-3 prostate
RPMI-8226 leukemia = system: RPMI-8226 leukemia
RXF 393 renal = system: RXF 393 renal
SF-295 CNS = system: SF-295 CNS
SF-539 CNS = system: SF-539 CNS
SK-MEL-2 melanoma = system: SK-MEL-2 melanoma
SK-MEL-28 melanoma = system: SK-MEL-28 melanoma
SK-MEL-5 melanoma = system: SK-MEL-5 melanoma
SK-OV-3 ovarian = system: SK-OV-3 ovarian
SN12C renal = system: SN12C renal
SNB-19 CNS = system: SNB-19 CNS
SR leukemia = system: SR leukemia
SW-620 colon = system: SW-620 colon
UACC-257 melanoma = system: UACC-257 melanoma

With `COc1ccc2c3c(c4cc(OC)c(OC)cc4c2c1)CN1CCC[C@H]1[C@@H]3O` the TGI (A549 NSCLC) was > 55400 nM, the TGI (BT-549 breast) was 6760 nM and the TGI (CAKI-1 renal) was 234 nM. For the same molecule, the TGI (COLO 205 colon) was 304 nM, the TGI (EKVX NSCLC) was 578 nM and the TGI (HCT-116 colon) was 1220 nM. It also gave a TGI (HCT-15 colon) of 1190 nM, a TGI (HOP-62 NSCLC) of 2810 nM and a TGI (HT29 colon) of 373 nM. For the same molecule, the TGI (IGROV1 ovarian) was 326 nM, the TGI (K-562 leukemia) was 653 nM and the TGI (KM12 colon) was 341 nM. The TGI (M14 melanoma) was 1300 nM, the TGI (MALME-3M melanoma) was 829 nM and the TGI (MCF7 breast) was > 100000 nM. It also gave a TGI (MDA-MB-435) of 4210 nM, a TGI (MDA-N) of 706 nM and a TGI (NCI-H226 lung) of 11500 nM. For the same molecule, the TGI (NCI-H23 lung) was 169 nM, the TGI (NCI-H522 lung) was 2850 nM and the TGI (NCI/ADR-RES ovarian) was 26100 nM. For the same molecule, the TGI (OVCAR-3 ovarian) was > 21100 nM, the TGI (OVCAR-4 ovarian) was 31200 nM and the TGI (OVCAR-5 ovarian) was > 28300 nM. For the same molecule, the TGI (PC-3 prostate) was > 41900 nM, the TGI (RPMI-8226 leukemia) was 5170 nM and the TGI (RXF 393 renal) was 7640 nM. It also gave a TGI (SF-295 CNS) of 4030 nM, a TGI (SF-539 CNS) of 829 nM and a TGI (SK-MEL-2 melanoma) of 591 nM. The TGI (SK-MEL-28 melanoma) was 667 nM, the TGI (SK-MEL-5 melanoma) was 398 nM and the TGI (SK-OV-3 ovarian) was > 100000 nM. The TGI (SN12C renal) was 237 nM, the TGI (SNB-19 CNS) was 2130 nM and the TGI (SR leukemia) was 4870 nM. The TGI (SW-620 colon) was > 39800 nM and the TGI (UACC-257 melanoma) was 544 nM.
